Test results taken from PMC13470012, “Long-term inhibition of lysosomal glucocerebrosidase activity promotes GPX4 stability and inhibits ferroptosis in dopaminergic neurons” (Cell Death & Disease, 2026).
pIC50: −log10 of the molar value.

Molecular target: T1, lysosomal glucocerebrosidase (Homo sapiens, UniProt P04062)
T1 construct: gene GBA1
T1 sequence (P04062 40-536): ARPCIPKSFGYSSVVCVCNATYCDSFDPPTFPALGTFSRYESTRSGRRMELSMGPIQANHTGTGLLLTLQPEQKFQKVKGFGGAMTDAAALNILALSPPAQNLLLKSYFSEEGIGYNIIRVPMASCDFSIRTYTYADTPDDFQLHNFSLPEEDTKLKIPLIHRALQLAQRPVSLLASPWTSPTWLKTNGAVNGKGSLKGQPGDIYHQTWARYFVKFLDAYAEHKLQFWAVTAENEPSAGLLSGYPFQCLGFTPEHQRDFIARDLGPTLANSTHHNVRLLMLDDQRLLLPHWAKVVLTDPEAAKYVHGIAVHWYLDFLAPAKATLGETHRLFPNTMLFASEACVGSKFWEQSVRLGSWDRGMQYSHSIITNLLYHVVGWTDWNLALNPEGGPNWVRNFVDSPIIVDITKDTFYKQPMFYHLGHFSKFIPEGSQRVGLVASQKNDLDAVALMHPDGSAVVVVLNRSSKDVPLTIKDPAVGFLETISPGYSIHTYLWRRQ
Assay: fluorogenic (4-methylumbelliferone) glucocerebrosidase activity assay in lysates of CBE-treated human LUHMES cells, […] h dose range
Assay type: cell-based

O[C@H]1[C@H](O)[C@@H](O)[C@@H]2O[C@@H]2[C@@H]1O [conduritol-beta-epoxide]
pIC50: ~5.05
